Active and inactive are the calls of the source. The calls are words filed in the database; no cut-off is given here.
Experiments:
RAW264.7 [1] = test: Inhibition of NFkappaB/MAPK signaling pathway in mouse RAW264.7 cells assessed as reduction in LPS-induced p38 phosphorylation at 50 uM by Western blot analysis; assay type: cell-based
THP-1 = test: cells; settings: Homo sapiens
Description: Antiinflammatory activity in LPS-induced human THP-1 cells assessed as inhibition of IL-6 release pretreated for 30 mins followed by LPS stimulation and measured after 24 hrs by ELISA

[2] = biological target: Mitogen-activated protein kinase 14 (Homo sapiens) (UniProt Q16539); test: Inhibition of p38alpha (unknown origin) at 10 uM relative to control
Sequence of Mitogen-activated protein kinase 14 (Homo sapiens) (Q16539 whole entry): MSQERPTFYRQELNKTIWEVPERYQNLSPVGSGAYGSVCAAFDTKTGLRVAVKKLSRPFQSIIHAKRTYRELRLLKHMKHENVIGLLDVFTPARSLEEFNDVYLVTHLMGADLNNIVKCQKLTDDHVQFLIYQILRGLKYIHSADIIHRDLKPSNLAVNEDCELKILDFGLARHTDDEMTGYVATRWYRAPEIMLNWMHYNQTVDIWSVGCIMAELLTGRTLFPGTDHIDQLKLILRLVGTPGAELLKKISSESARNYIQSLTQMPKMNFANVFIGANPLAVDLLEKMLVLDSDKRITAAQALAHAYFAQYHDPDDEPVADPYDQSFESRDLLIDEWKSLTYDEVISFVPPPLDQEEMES

Mus musculus [3] = test: Antiinflammatory activity in male C57BL/6 mouse model of DSS-induced ulcerative colitis assessed as reduction in DAI score at 20 mg/kg, po administered for 11 days with subsequent administration of DSS for 8 days; assay type: functional, organism-based; settings: time 11.0 day
[4] = Clearance in male Sprague-Dawley rat at 10 mg/kg, po measured upto 24 hrs; assay type: ADME, organism-based; settings: in vivo
Mus musculus [5] = test: Antiinflammatory activity in LPS induced C57BL/6 mouse model of acute lung injury assessed as inhibition of TNFalpha release in BALF at 20 to 40 mg/kg, ip preadministered for 30 mins followed by LPS administration and measured after 6 hrs by ELISA; assay type: functional, organism-based; settings: dose 20-40 mg/kg, time 6.5 hrs
Mus musculus [6] = test: In vivo binding affinity to IRAK4 in DSS-induced ulcerative colitis C57BL/6 mouse colon assessed as thermal stabilization at 10 to 20 mg/kg, po administered for 11 days with subsequent administration of DSS for 8 days by CETSA; assay type: functional, organism-based; settings: dose 10-20 mg/kg, time 11.0 day
Mus musculus [7] = test: Antiinflammatory activity in LPS induced C57BL/6 mouse model of acute lung injury assessed as inhibition of IL-6 release in BALF at 20 to 40 mg/kg, ip preadministered for 30 mins followed by LPS administration and measured after 6 hrs by ELISA; assay type: functional, organism-based; settings: dose 20-40 mg/kg, time 6.5 hrs
Mus musculus [8] = test: Antiinflammatory activity in male C57BL/6 mouse model of DSS-induced ulcerative colitis assessed as reversal of invisible pulp structure at 10 to 20 mg/kg, po administered for 11 days with subsequent administration of DSS for 8 days by H and E staining based analysis; assay type: functional, organism-based; settings: dose 10-20 mg/kg, time 11.0 day
RAW264.7 [9] = test: Inhibition of NFkappaB/MAPK signaling pathway in mouse RAW264.7 cells assessed as reduction in LPS-induced IkappaBalpha degradation at 50 uM by Western blot analysis; assay type: cell-based
[10] = Stability of compound in enzyme free simulated intestinal fluid at 10 mg/ml incubated for 8 hrs and measured every 2 hrs hy HPLC analysis; assay type: ADME; settings: simulated gi fluid
Mus musculus [11] = test: Antiinflammatory activity in male C57BL/6 mouse model of DSS-induced ulcerative colitis assessed as reduction in IL-6 level in serum at 20 mg/kg, po administered for 11 days with subsequent administration of DSS for 8 days by ELISA; assay type: functional, organism-based; settings: time 11.0 day
[12] = biological target: Interleukin-1 receptor-associated kinase 1 (Homo sapiens, UniProt P51617); test: Inhibition of IRAK1 (unknown origin)
Sequence of Interleukin-1 receptor-associated kinase 1 (P51617 whole entry): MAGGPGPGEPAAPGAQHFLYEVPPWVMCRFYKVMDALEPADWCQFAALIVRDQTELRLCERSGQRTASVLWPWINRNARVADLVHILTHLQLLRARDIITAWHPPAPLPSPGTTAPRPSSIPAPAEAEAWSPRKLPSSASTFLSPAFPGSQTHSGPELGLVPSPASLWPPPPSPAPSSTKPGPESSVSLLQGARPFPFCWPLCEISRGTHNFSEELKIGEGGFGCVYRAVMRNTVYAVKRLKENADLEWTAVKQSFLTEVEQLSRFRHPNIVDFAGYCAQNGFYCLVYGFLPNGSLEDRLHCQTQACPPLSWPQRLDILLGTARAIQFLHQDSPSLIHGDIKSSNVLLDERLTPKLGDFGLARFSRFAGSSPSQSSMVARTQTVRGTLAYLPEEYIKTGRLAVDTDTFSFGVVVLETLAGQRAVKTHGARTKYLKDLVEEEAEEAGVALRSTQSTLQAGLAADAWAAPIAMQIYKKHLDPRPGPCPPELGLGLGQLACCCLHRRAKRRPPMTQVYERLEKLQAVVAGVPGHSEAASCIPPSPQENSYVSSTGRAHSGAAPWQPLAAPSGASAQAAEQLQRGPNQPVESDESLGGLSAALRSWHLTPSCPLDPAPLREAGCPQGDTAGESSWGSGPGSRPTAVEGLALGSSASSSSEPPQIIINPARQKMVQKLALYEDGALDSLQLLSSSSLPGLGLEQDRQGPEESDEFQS

[13] = Tmax in male Sprague-Dawley rat at 10 mg/kg, po measured upto 24 hrs; assay type: ADME, organism-based; settings: in vivo
J774.A1 = test: cells; settings: Mus musculus
Description: Antiinflammatory activity in LPS-induced mouse J774.A1 cells assessed as inhibition of TNF-alpha release pretreated for 30 mins followed by LPS stimulation and measured after 24 hrs by ELISA

Mus musculus [14] = test: Antiinflammatory activity in male C57BL/6 mouse model of DSS-induced ulcerative colitis assessed as reversal of ruptured spleen at 10 to 20 mg/kg, po administered for 11 days with subsequent administration of DSS for 8 days by H and E staining based analysis; assay type: functional, organism-based; settings: dose 10-20 mg/kg, time 11.0 day
Mus musculus [15] = test: Anti-colitis activity in male C57BL/6 mouse model of DSS-induced ulcerative colitis assessed as colon length at 10 mg/kg, po administered for 11 days with subsequent administration of DSS for 8 days (reference value: 5.2 cm); assay type: functional; settings: time 11 day
[16] = system: Tyrosine-protein kinase ABL1 (Homo sapiens), P00519 [T315I]; test: Inhibition of human ABL […] mutant assessed as residual activity at 10 uM by Eurofins kinase profiler method relative to control
[17] = Half life in male Sprague-Dawley rat at 10 mg/kg, po measured upto 24 hrs; assay type: ADME, organism-based; settings: in vivo
[18] = Cmax in male Sprague-Dawley rat at 1 mg/kg, iv administered via tail vein and measured upto 24 hrs; assay type: ADME, organism-based; settings: in vivo
[19] = Cmax in male Sprague-Dawley rat at 10 mg/kg, po measured upto 24 hrs; assay type: ADME, organism-based; settings: in vivo
RAW264.7 [20] = test: cells; settings: Mus musculus
Description: Antiinflammatory activity in LPS-induced mouse RAW264.7 cells assessed as inhibition of IL-6 release pretreated for 30 mins followed by LPS stimulation and measured after 24 hrs by ELISA

RAW264.7 [21] = test: Inhibition of NFkappaB signaling pathway in LPS-induced mouse RAW264.7 cells assessed as inhibition of IkappaBalpha degradation by Western blot analysis; assay type: cell-based; settings: dose 2.5-10 µM
[22] = Stability of compound in rat plasma at 10 mg/ml incubated for 8 hrs and measured every 2 hrs hy HPLC analysis; assay type: ADME, cell-free
[23] = biological target: T1, Inhibitor of nuclear factor kappa-B kinase subunit beta (Homo sapiens) (UniProt O14920); test: Inhibition of IKKbeta (unknown origin) at 10 uM relative to control
T1 sequence (whole entry): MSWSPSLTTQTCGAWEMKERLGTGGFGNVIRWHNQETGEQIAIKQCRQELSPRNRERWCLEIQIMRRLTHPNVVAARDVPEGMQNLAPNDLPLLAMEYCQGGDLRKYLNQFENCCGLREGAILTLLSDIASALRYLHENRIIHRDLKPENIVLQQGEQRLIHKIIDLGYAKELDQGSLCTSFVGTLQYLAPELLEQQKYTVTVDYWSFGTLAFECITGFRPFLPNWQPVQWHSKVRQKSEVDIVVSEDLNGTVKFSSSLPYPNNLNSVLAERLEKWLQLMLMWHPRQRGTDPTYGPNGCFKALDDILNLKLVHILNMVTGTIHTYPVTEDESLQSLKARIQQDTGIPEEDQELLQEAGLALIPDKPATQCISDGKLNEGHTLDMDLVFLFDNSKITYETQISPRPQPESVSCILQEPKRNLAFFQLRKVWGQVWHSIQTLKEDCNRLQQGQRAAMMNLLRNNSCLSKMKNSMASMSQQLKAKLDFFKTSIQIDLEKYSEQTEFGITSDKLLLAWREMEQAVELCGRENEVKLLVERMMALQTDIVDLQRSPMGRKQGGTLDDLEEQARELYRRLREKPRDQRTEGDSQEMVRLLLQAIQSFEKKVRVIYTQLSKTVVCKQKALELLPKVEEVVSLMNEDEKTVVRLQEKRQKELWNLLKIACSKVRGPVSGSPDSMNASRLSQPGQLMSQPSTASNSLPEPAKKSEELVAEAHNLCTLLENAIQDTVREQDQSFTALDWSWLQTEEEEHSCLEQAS

Mus musculus [24] = test: Antiinflammatory activity in LPS induced C57BL/6 mouse model of acute lung injury assessed as reduction in macrophage infiltration in lung at 20 to 40 mg/kg, ip preadministered for 30 mins followed by LPS administration and measured after 6 hrs by F4/80 labeling based immunohistochemical analysis; assay type: functional, organism-based; settings: dose 20-40 mg/kg, time 6.5 hrs
Mus musculus [25] = test: Antiinflammatory activity in male C57BL/6 mouse model of DSS-induced ulcerative colitis assessed as restoration of protein status at 10 to 20 mg/kg, po administered for 11 days with subsequent administration of DSS for 8 days by H and E staining based analysis; assay type: functional, organism-based; settings: dose 10-20 mg/kg, time 11.0 day

COc1cc2c(O[C@H]3CC[C@@H](N)CC3)ncnc2cc1OCc1ccccc1
inhibition (RAW264.7 [1]): Active | IC50 (THP-1): 0.53 µM | inhibition [2]: 0.03% | Activity (Mus musculus [3]): Active | CL [4]: 1.48 mL/min/kg | Activity (Mus musculus [5]): Active | Activity (Mus musculus [6]): Active | Activity (Mus musculus [7]): Active | Activity (Mus musculus [8]): Active | inhibition (RAW264.7 [9]): Active | Stability [10]: Stable | Activity (Mus musculus [11]): Active | IC50 [12]: 1.77 µM | Tmax [13]: 3 h | IC50 (J774.A1): 2.75 µM | Activity (Mus musculus [14]): Active | Activity (Mus musculus [15]): 5.9 cm | Activity [16]: 70% | half-life [17]: 5.6 h | Cmax [18]: 6260 ng/mL | Cmax [19]: 1250 ng/mL | IC50 (RAW264.7 [20]): 1.27 µM | inhibition (RAW264.7 [21]): Dose-Dependent Effect | Stability [22]: Stable | inhibition [23]: -1.64% | Activity (Mus musculus [24]): Active | Activity (Mus musculus [25]): Active

Source: ChEMBL document CHEMBL5523725, “Fragment-Based Anti-inflammatory Agent Design and Target Identification: Discovery of AF-45 as an IRAK4 Inhibitor to Treat Ulcerative Colitis and Acute Lung Injury” (J Med Chem, 2024)
